Data set [1] deals with T1, Human adenosine A2A receptor (Homo sapiens, UniProt P29274).
T1 construct: host or cells: CHO
Nature of the data set: Human adenosine A2A receptor calcium flux assay. It counts as cell-based. Particulars: A2A stable CHO cell strain, antagonist mode against agonist NECA at EC80, FLIPR Fluo-4.

Data set [2] is described as follows: Determination of kinetic solubility. Particulars: aqueous buffer, kinetic from dmso stock, 50 mM phosphate buffer pH 7.4, 24 hours, room temperature, 200 μM maximum. It counts as physicochemical. As to the method:
The test compounds were dissolved in DMSO to prepare 10 mmol/L stock solutions. The stock solutions were diluted with 50% ACN/50 mM phosphate buffer (pH 7.4) to prepare standard solutions (1 μM, 20 μM, […]).
490 μL of dissolution medium (50 mM phosphate buffer solution, pH 7.4) was pipetted into a 96-well plate with a single-well volume of 2 mL using a pipette (Eppendorf Research Inc.). 10 μL of the stock solution of each test compounds and QC sample (10 mmol/L DMSO stock solution) were added to the dissolution medium, respectively, and the sample plate was sealed with a sealing film. The final concentration of the test compounds and DMSO in the sample solution were 200 μM and 2%, respectively. The mixture was shaken at 600 rpm for 24 hours at room temperature. 200 μL of the sample solution was transferred into a 96-well filter plate using a pipette and filtered with suction. The filtrate and the standard solution were detected by high performance liquid chromatography (HPLC-DAD). The concentration of the test compounds in the filtrate was calculated by an external standard method, which was the kinetic solubility of the compounds.

Data set [3] can be described thus: Pharmacokinetics in female Balb/c mice. It counts as in vivo. To be noted: mouse, plasma, single intravenous injection / single oral administration; for bioavailability: read-out: Bioavailability F; for AUC: read-out: Concentration integral AUC; for half-life: read-out: Half-life T1/2 (converted). As to the method: Objective: To test the pharmacokinetics of compounds in female Balb/c mice in vivo
Balb/c mice (female, 15-30 g, 7-9 weeks old, Shanghai Lingchang)
The pharmacokinetics profile of the compounds in rodent after intravenous injection and oral administrations was tested using a standard protocol. In the assay, the candidate compound was formulated into a clear solution and administrated to the mice through a single intravenous injection, and formulated into a uniform suspension and administrated to the mice through a single oral administration. […] The whole blood samples were collected within 24 hours, centrifuged at 3000 g at 4° C. for 15 minutes, and plasma samples were obtained by separating the supernatant. 20 times volume of acetonitrile solution containing an internal standard was added to precipitate proteins. After centrifugation, the supernatant was collected, to which an equal volume of water was added, and further centrifuged to collect the supernatant. The LC-MS/MS method was used to quantitatively analyze the plasma concentration, and the pharmacokinetics parameters, such as peak concentration, peak time, clearance rate, half-life, area under the curve, and bioavailability were calculated.

This note sets out measurements from patent US11117899B2, “[1,2,4]triazolo[1,5-c]pyrimidine derivative as A2A receptor inhibitor” (MEDSHINE DISCOVERY INC., priority 2017, dated 2021).

SMILES strings stand for the structures. ≈ marks a conversion by molar mass, not a printed value.

T1 sequence (P29274 whole entry): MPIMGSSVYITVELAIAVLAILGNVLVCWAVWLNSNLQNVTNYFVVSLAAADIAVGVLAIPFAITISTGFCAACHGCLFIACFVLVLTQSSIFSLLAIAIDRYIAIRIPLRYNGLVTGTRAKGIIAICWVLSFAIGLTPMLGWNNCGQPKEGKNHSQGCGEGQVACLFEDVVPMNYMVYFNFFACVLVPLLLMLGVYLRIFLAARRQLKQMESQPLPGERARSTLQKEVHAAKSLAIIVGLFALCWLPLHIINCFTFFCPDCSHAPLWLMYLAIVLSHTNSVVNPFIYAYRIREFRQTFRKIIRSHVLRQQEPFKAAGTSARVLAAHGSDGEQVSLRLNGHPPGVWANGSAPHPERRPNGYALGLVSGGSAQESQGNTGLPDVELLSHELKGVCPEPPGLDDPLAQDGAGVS

In the case of `Cc1cc(-c2c(-c3ccc(F)cc3)nc(N)n3nc(CO)nc23)cc(C(F)(F)F)n1` [Example C-43], the half-maximal inhibitory concentration (IC50) in data set [1] was found to be 1.36 nM. In addition, in data set [2], the solubility at 24 h came out at 168 µM (≈ 70.3 µg/mL). Moreover, in data set [3], the clearance is 7.51 mL/min/kg, the bioavailability came to 82.9%, the AUC is 43.9 µM·h and the half-life was 1.99 h.

With `Cc1cc(-c2c(-c3ccc(F)cc3)nc(N)n3nc(C)nc23)cc(C(F)(F)F)n1` [Example C-46], in data set [1], the IC50 is 3.08 nM. The molecule further registered a solubility at 24 h in data set [2] of 172 µM (≈ 69.2 µg/mL). Moreover, in data set [3], the clearance came out at 0.54 mL/min/kg, the bioavailability was determined as 44%, the AUC turned out to be 20.1 µM·h and the half-life is 1.92 h.

As for `Nc1nc(-c2ccc(F)cc2)c(-c2cc(Cl)nc(C(F)(F)F)c2)c2nc(CO)nn12` [Example C-58], the IC50 in data set [1] is 1.72 nM. In data set [2], this molecule had a solubility at 24 h of 78.9 µM (≈ 34.6 µg/mL). Also, in data set [3], the clearance worked out at 2.5 mL/min/kg, the bioavailability was determined as 123%, the AUC came to 157 µM·h and the half-life was 7.26 h.
